Assay results from patent publication US10966427B2, “3-pyridyl oxyanilide compound and use therefor” (SUMITOMO CHEMICAL COMPANY, LIMITED, priority 2017, dated 2021).

Columns and labels:
Type in all cases: in vivo
Echinochloa crus-galli = assay: Test Example 1: foliar spray herbicide efficacy; conditions: second to third leaf stages, sprayed, 63 g/ha, greenhouse for days (number not given)
Procedure: Here “untreated group” represents a group where a similar treatment procedure to that of the treated group except not using the test compound is done. One point one nine (1.19) mg of the present compound was dissolved 1 mL of a DMF solution containing 2% polyoxyethylene sorbitan monolaurate, and then 18 mL of water was added thereto. The mixture was sprayed uniformly to Echinochloa crus-galli in the second to third leaf stages so that the applied dose was made 63 g/ha. Thereafter, the plants were cultivated in a greenhouse for days, and the herbicide efficacy was assessed.

Digitaria ciliaris = assay: Test Examples 2 and 5, Comparative Example 1: foliar spray herbicide efficacy; conditions: second to third leaf stages, sprayed, 63 g/ha; for Herbicide efficacy against digitaria ciliaris: greenhouse 16 days
Procedure: Here “untreated group” represents a group where a similar treatment procedure to that of the treated group except not using the test compound is done. One point one nine (1.19) mg of the present compound was dissolved 1 mL of a DMF solution containing 2% polyoxyethylene sorbitan monolaurate, and then 18 mL of water was added thereto. The mixture was sprayed uniformly to Digitaria ciliaris in the second to third leaf stages so that the applied dose was made 63 g/ha. Thereafter, the plants were cultivated in a greenhouse for 7 days, and the herbicide efficacy was assessed. […] One point one nine (1.19) mg of the present compound was dissolved 1 mL of a DMF solution containing 2% polyoxyethylene sorbitan monolaurate, and then 18 mL of water was added thereto. The mixture was sprayed uniformly to Digitaria ciliaris in the second to third leaf stages so that the applied dose was made 63 g/ha. Thereafter, the plants were cultivated in a greenhouse for 16 days, and the herbicide efficacy was assessed. The test was conducted similarly to the method described in Test Example 5 except for using a compound represented by the following formula (A): […]

Leptochloa chinensis = assay: Test Example 3: pot spray followed by flooding, herbicide efficacy; conditions: first leaf stage, pot sprayed, 250 g/ha, flooded to 3 cm next day, greenhouse 20 days
Procedure: Here “untreated group” represents a group where a similar treatment procedure to that of the treated group except not using the test compound is done. Leptochloa chinensis seeds were seeded into a pot having a diameter of 9 cm and a death of 10 cm that was filled with steam-sterilized soil, and the plants were cultivated in a greenhouse until an emergence of the first leaf stage. Next, 4.75 mg of the present compound was dissolved into a 1 mL of DMF solution containing 2% polyoxyethylene sorbitan monolaurate, and then 18 mL of water was added thereto. The mixture was sprayed uniformly to the pot so that the applied dose was made 250 g/ha. After the pot was flooded to a depth of 3 cm on next day, the plants were cultivated in a greenhouse for 20 days, and the herbicide efficacy was assessed.

soybean = assay: Test Examples 4 and 5, Comparative Example 1: foliar spray phytotoxicity against useful plants; conditions: second to third leaf stages, sprayed, 63 g/ha; for Phytotoxicity against Soybean: greenhouse 16 days
Procedure: Here “untreated group” represents a group where a similar treatment procedure to that of the treated group except not using the test compound is done. One point one nine (1.19) mg of the present compound was dissolved 1 mL of a DMF solution containing 2% polyoxyethylene sorbitan monolaurate, and then 18 mL of water was added thereto. The mixture was sprayed uniformly to soybean in the second to third leaf stages so that the applied dose was made 63 g/ha. Thereafter, the plants were cultivated in a greenhouse for 7 days, and the phytotoxicity against useful plants was assessed. […] Also, 1.19 mg of the present compound was dissolved 1 mL of a DMF solution containing 2% polyoxyethylene sorbitan monolaurate, and then 18 mL of water was added thereto. The mixture was sprayed uniformly to soybean in the second to third leaf stages so that the applied dose was made 63 g/ha. Thereafter, the plants were cultivated in a greenhouse for 16 days, and the phytotoxicity against useful plants was assessed. The test was conducted similarly to the method described in Test Example 5 except for using a compound represented by the following formula (A): […]

| Compound | score as herbicide efficacy (Echinochloa crus-galli) | score as herbicide efficacy (Digitaria ciliaris; Digitaria ciliaris, greenhouse 7 days) | Herbicide efficacy against digitaria ciliaris (Digitaria ciliaris) | score as herbicide efficacy (Leptochloa chinensis) | Phytotoxicity against Soybean (soybean) | score as phytotoxicity (soybean; soybean, greenhouse 7 days) |
| --- | --- | --- | --- | --- | --- | --- |
| CCOC(=O)COc1ncccc1Oc1cc(NC(=O)COc2ncccc2Oc2cc(-n3c(=O)cc(C(F)(F)F)n(C)c3=O)c(F)cc2Cl)c(F)cc1Cl [Present compound] | 9 (90% to 99% of herbicide efficacy) | 9 (90% to 99% of herbicide efficacy) | 10 (100% of herbicide efficacy) | 10 (100% of herbicide efficacy) | 1 (10% to 19% of phytotoxicity) | 2 (20% to 29% of phytotoxicity) |
| Cn1c(C(F)(F)F)cc(=O)n(-c2cc(Oc3cccnc3OCC(=O)Oc3ccccc3)c(Cl)cc2F)c1=O [Compound (A), reference compound] | – | – | 10 (100% of herbicide efficacy) | – | 10 (100% of phytotoxicity) | – |
